Assay results reported in article PMC9983306, “Structurally Defined Water‐Soluble Metallofullerene Derivatives towards Biomedical Applications” (Angewandte Chemie (International Ed. in English), 2022).

Assay: T1 relaxivity by NMR inversion-recovery
Assay type: physicochemical
Conditions: per molecule concentration
Description: The T 1 relaxivity values of water‐soluble Gd MBTs were tested on 60 MHz (1.4 T) and 300 MHz (7.1 T) NMR spectrometers (Table S1), together with a representative commercial GBCA gadodiamide (i.e., Omniscan^TM). […] The enhanced contrast was directly visualized on a 1.0 T MRI scanner, with 20 μM and 5 μM 8 d, 8 d′, 8 e, and gadodiamide (Figure 5a), and the imaging contrast is consistent with the measured relaxivity values. The preclusion of ion leakage by the robust EMF cage dictates that the real limiting factor of MBT contrast agents is the toxicity of the MBT structure, not individual Gd^3+ ions, which means the molecular relaxivity of the MBTs is the more appropriate and relevant parameter for clinical evaluations. […]
Dynamic light scatt ering ex periments w ere performed using a Malvern Z etasizer Nano Z S90 instrument w ith a standard laser source (4mW, 633nm), to measure the hydrodynamic s ize of the aggregates formed by the samples in s olution. 1 uM sample concentrations were used for all the samples measured. […]
Samples 8b, 8b′ and 8c (16 µM, or 16800 ppb Lu) were taken in dialysis bags (MWCO = 1kD) and dialyzed against 1 50 mL PBS 1x f or 7 days without changing diasylate (outside solution in the beaker). […] With a detection limit < 0.1 ppb, no Lu3+ ions w ere detected in the three solutions, confirming the cage confinement of the metal ions. […]

r1 (1.4 T), T1 relaxivity (60 MHz (1.4 T) NMR): 4.4 mM⁻¹ s⁻¹
r1 (7.1 T), T1 relaxivity (300 MHz (7.1 T) NMR): 3.9 mM-1S-1
Structure (SMILES): CNC(=O)CN(CCN(CCN(CC(=O)[O-])CC(=O)NC)CC(=O)[O-])CC(=O)[O-].[Gd+3] [gadodiamide]
